Patent publication US4599352A, “Antineoplastic platinum (IV) complexes and compositions” (priority 1984, dated 1986)

What was measured:
[1] = system: IP L1210 leukemia; assay: Mouse optimal (highest tolerated) dose, IP L1210 leukemia, Days 1, 5 and 9 schedule (Table 7); assay type: in vivo
Text: *IP L1210 leukemia, Days 1, 5 and 9 schedule. Highest tolerated dose in a
least 2 of 3 experiments (i.e,. animal weight difference (testcontrol)

[2] = system: IP L1210/Cisplatin; assay: Activity against IP-implanted L1210/Cisplatin leukemia resistant to cisplatin, 60 day test (Table 4); assay type: in vivo, Female CD2Fl mice
Description: (§1) Biological properties of the compounds of the present invention were determined following the protocol described in Cancer Chemotherapy Reports, Vol. 3, No. 3, 1972 which report is incorporated herein by reference.
Other known mechanisms of resistance for other classes of agents, such as gene amplification or target enzyme change or amplication, also need to be explored. The experiments summarized in Table 3 were conducted at the same time against both sublines using the same drug preparations. […] These experiments were repeated in a second laboratory as documented in Table 4. However, in these experiments the animals were held for 60 rather than 30 days to evaluate whether or not long-term survivors are produced after drug treatment in a more challenging setting. […]
(§2) These experiments (23-00081 3LE31 and 23-00003 3DP3l) were conducted concurrently at the Mason Research Institute, Worcester, MA under the supervision of Dr. William Cobb. See Table 4 for experimental details. The diluent control animals bearing L1210 leukemia lived a median of 8.3 days and gained 1.6 grams by Day 5. […] Female CD2Fl mice were used for these experiments.

[3] = system: IP L1210; assay: Activity against IP-implanted L1210 leukemia sensitive to cisplatin, 60 day test (Table 4); assay type: in vivo, Female CD2Fl mice
Description: as §1
(§3) Other known mechanisms of resistance for other classes of agents, such as gene amplification or target enzyme change or amplication, also need to be explored. The experiments summarized in Table 3 were conducted at the same time against both sublines using the same drug preparations. […] These experiments were repeated in a second laboratory as documented in Table 4. However, in these experiments the animals were held for 60 rather than 30 days to evaluate whether or not long-term survivors are produced after drug treatment in a more challenging setting.
This experiment (A8-00005 3LE31) was conducted at the Southern Research Institute, Birmingham, Ala. under the supervision of Dr. Daniel Griswold. The protocols were the same as those published previously (Geran et al., Cancer Chemotherapy Reports 3: No. 2, 1972 [Attachment 11]). 10^5 cells were implanted intraperitoneally in CD2Fl male mice on Day 0. Drug treatments were given intraperitoneally as single injections at the doses indicated on Days 1, 5 and 9 after tumor implantation. The diluent was saline except for NSC-271674 where 5% sodium bicarbonate was used. All drugs were prepared fresh on the day of injection, and all were administered in solution. Median survival times for both control and drug-treated mice were determined and expressed as a percentage (% T/C). Body weights were determined on Day 5 and expressed as a weight difference (body weight of the drug-treated animals minus that of the control animals in grams) (T-C). The diluent control animals lived a median of 8.4 days and gained 1.9 grams by Day 5 in this experiment. All animals, including Day 30 survivors, were used in the calculation of median survival times. The log10 change in tumor burden refers to the net log change in viable tumor cell population at the end of therapy (Rx) as compared to the start of therapy; e.g., a […] means that there was a […] and a 3 log change means there was a 1000-fold increase in tumor burden at the end of therapy. The tumor burden at the start of therapy was about 6.1×10^5 cells in this experiment.
as §2

[4] = system: IP L1210/Cisplatin; assay: Activity against IP-implanted L1210/Cisplatin leukemia resistant to cisplatin, 30 day test (Table 3); assay type: in vivo, Female CD2Fl mice
Description: as §1, §3
This experiment (A8-00005 3LE31) was conducted at the Southern Research Institute, Birmingham, Ala. under the supervision of Dr. Daniel Griswold. The protocols were the same as those published previously (Geran et al., Cancer Chemotherapy Reports 3: No. 2, 1972 [Attachment 11]). 10^5 cells were implanted intraperitoneally in CD2Fl male mice on Day 0. Drug treatments were given intraperitoneally as single injections at the doses indicated on Days 1, 5 and 9 after tumor implantation. The diluent was saline except for NSC-271674 where 5% sodium bicarbonate was used. All drugs were prepared fresh on the day of injection, and all were administered in solution. Median survival times for both control and drug-treated mice were determined and expressed as a percentage (% T/C). Body weights were determined on Day 5 and expressed as a weight difference (body weight of the drug-treated animals minus that of the control animals in grams) (T-C). The diluent control animals lived a median of 8.4 days and gained 1.9 grams by Day 5 in this experiment. All animals, including Day 30 survivors, were used in the calculation of median survival times. The log10 change in tumor burden refers to the net log change in viable tumor cell population at the end of therapy (Rx) as compared to the start of therapy; e.g., a […] means that there was a […] and a 3 log change means there was a 1000-fold increase in tumor burden at the end of therapy. The tumor burden at the start of therapy was about 6.1×10^5 cells in this experiment. […]

## [Cl][Pt]1([Cl])([Cl])([Cl])[NH]C2CCCCC2[NH]1 (stereo not drawn) [trans (d, l), (d,l)-Tetrachloro-trans-1,2-cyclohexanediamine platinum (IV)]
[1]
  Mouse Optimal Dose (highest tolerated dose in at least 2 of 3 experiments): 8 mg/kg
[2]; 1 mg/kg/dose
  60 Day Survivors/Total: 0/10
  Body Weight Difference: -0.6 Grams
  Median % T/C: 129%
[2]; 2 mg/kg/dose
  60 Day Survivors/Total: 1/10
  Body Weight Difference: -0.8 Grams
  Median % T/C: 139%
[2]; 4 mg/kg/dose
  60 Day Survivors/Total: 4/10
  Body Weight Difference: -1.2 Grams
  Median % T/C: 451%
[2]; 8 mg/kg/dose
  60 Day Survivors/Total: 0/10
  Body Weight Difference: -4.0 Grams
  Median % T/C: 236%
[2]; 16 mg/kg/dose
  60 Day Survivors/Total: 0/10
  Body Weight Difference: -6.3 Grams
  Median % T/C: Toxic
[3]; 1 mg/kg/dose
  60 Day Survivors/Total: 0/10
  Body Weight Difference: -0.8 Grams
  Median % T/C: 144%
[3]; 2 mg/kg/dose
  60 Day Survivors/Total: 0/10
  Body Weight Difference: -1.2 Grams
  Median % T/C: 180%
[3]; 4 mg/kg/dose
  60 Day Survivors/Total: 0/10
  Body Weight Difference: -1.5 Grams
  Median % T/C: 274%
[3]; 8 mg/kg/dose
  60 Day Survivors/Total: 3/10
  Body Weight Difference: -3.2 Grams
  Median % T/C: 178%
[3]; 16 mg/kg/dose
  60 Day Survivors/Total: 0/10
  Body Weight Difference: -5.9 Grams
  Median % T/C: 89%
[4]; 1 mg/kg/dose
  30 Day Survivors/Total: 0/6
  Approx. Log10 Change in Tumor Burden at End of RX: ~2.8 log10
  Median % T/C: 115%
[4]; 2 mg/kg/dose
  30 Day Survivors/Total: 0/6
  Approx. Log10 Change in Tumor Burden at End of RX: ~2.8 log10
  Median % T/C: 118%
[4]; 4 mg/kg/dose
  30 Day Survivors/Total: 2/6
  Approx. Log10 Change in Tumor Burden at End of RX: ~-3.4 log10
  Median % T/C: 225%
[4]; 8 mg/kg/dose
  30 Day Survivors/Total: 4/6
  Approx. Log10 Change in Tumor Burden at End of RX: ~-5.9 log10
  Median % T/C: 322%
[4]; 16 mg/kg/dose
  30 Day Survivors/Total: 1/6
  Median % T/C: 110%
